Measurements: the supplement of paper PMC9938120

Legend:
Test in all cases: drug sensitivity score (DSS3, normalised partial AUC of % inhibition dose-response) (DSS (score)); higher = more sensitive (stronger inhibition of viability); extreme values may be limits of the assay
[1] = tested on: FMOC25_1 (patient-derived low-grade serous ovarian cancer cells); details: 72 h; library: FO4B; assay format: 2D, 384-well, CellTiter-Glo
Summary of the method: (§1)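 The drug sensitivity score is calculated as a partial area under the percent-inhibition dose-response curve, divided by the log of the upper asymptote; higher scores mean more sensitive. For this score, early-passage (under 10) patient-derived ovarian cancer cells were exposed on 384-well flat clear-bottom plates to compounds at five concentrations across a 10,000-fold range for 72 h at 37 °C, 5% CO2. Viability was read with CellTiter-Glo and processed in Breeze.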

[2] = tested on: FMOC25_2 (patient-derived low-grade serous ovarian cancer cells); details: 72 h; library: FO5A; assay format: 2D, 384-well, CellTiter-Glo
Summary of the method: as §1

[3] = tested on: FMOC02_2 (patient-derived low-grade serous ovarian cancer cells); details: 72 h; library: FO5A; assay format: 2D, 384-well, CellTiter-Glo
Summary of the method: as §1

[4] = tested on: FMOC22 (patient-derived mucinous ovarian cancer cells); details: 72 h; library: FO5A; assay format: 2D, 384-well, CellTiter-Glo
Summary of the method: as §1

[5] = tested on: FMOC03 (patient-derived mucinous ovarian cancer cells); details: 72 h; library: FO5A; assay format: 2D, 384-well, CellTiter-Glo
Summary of the method: as §1

[6] = tested on: FMOC02_3 (patient-derived low-grade serous ovarian cancer cells); details: 72 h; library: FO5A; assay format: 2D, 384-well, CellTiter-Glo
Summary of the method: as §1

[7] = tested on: FMOC24 (patient-derived high-grade serous ovarian cancer cells); details: 72 h; library: FO5A; assay format: 2D, 384-well, CellTiter-Glo
Summary of the method: as §1

[8] = tested on: FMOC09 (patient-derived high-grade serous ovarian cancer cells); details: 72 h; library: FO5A; assay format: 2D, 384-well, CellTiter-Glo
Summary of the method: as §1

[9] = tested on: FMOC06 (patient-derived mucinous ovarian cancer cells); details: 72 h; library: FO5A; assay format: 2D, 384-well, CellTiter-Glo
Summary of the method: as §1

[10] = tested on: FMOC14 (patient-derived high-grade serous ovarian cancer cells); details: 72 h; library: FO5A; assay format: 2D, 384-well, CellTiter-Glo
Summary of the method: as §1

Compound	drug sensitivity score [1]	drug sensitivity score [2]	drug sensitivity score [3]	drug sensitivity score [4]	drug sensitivity score [5]	drug sensitivity score [6]	drug sensitivity score [7]	drug sensitivity score [8]	drug sensitivity score [9]	drug sensitivity score [10]
CC(=O)O[C@@]12CO[C@@H]1C[C@H](O)[C@@]1(C)C(=O)[C@H](O)C3=C(C)[C@@H](OC(=O)[C@H](O)[C@@H](NC(=O)OC(C)(C)C)c4ccccc4)C[C@@](O)([C@@H](OC(=O)c4ccccc4)[C@H]21)C3(C)C [Docetaxel]	12.1	15.5	10.8	12.4	11.7	15.5	0.6	13.9	9.1	0
COc1cc(Nc2ncc(F)c(Nc3ccc4c(n3)NC(=O)C(C)(C)O4)n2)cc(OC)c1OC [Tamatinib]	7.2	8.7	13	0	2.5	9.6	5.3	0.7	0	0
CN(Cc1cnc2nc(N)nc(N)c2n1)c1ccc(C(=O)N[C@@H](CCC(=O)O)C(=O)O)cc1 [Methotrexate]	0	0.2	0	0	0	0	0	0	0	0
COc1cccc2c1C(=O)c1c(O)c3c(c(O)c1C2=O)C[C@@](O)(/C(CO)=N/NC(=O)CCCCCN1C(=O)C=CC1=O)C[C@@H]3O[C@H]1C[C@H](N)[C@H](O)[C@H](C)O1 [Aldoxorubicin]	5.3	7.9	5	4.5	3.9	7.8	5.2	6.1	4.4	4.7
Cn1cc(CNCC2CCN(c3ncc(C(=O)NO)cn3)CC2)c2ccccc21 [Quisinostat]	9.9	11.2	10.9	8.1	10.3	10.8	13.6	4.8	9.4	10.7
COc1c(OCCCN2CCOCC2)ccc2c1N=C(NC(=O)c1cnc(N)nc1)N1CCN=C21 [Copanlisib]	11.7	16.8	17.4	5.2	8.5	19.6	3.1	10.5	12.8	6.6
FC(F)c1nc2ccccc2n1-c1nc(N2CCOCC2)nc(N2CCOCC2)n1 [ZSTK474]	15.6	16.8	16.9	5.6	10.6	18.4	4.65	11.8	12.5	9.8
N#CCNC(=O)c1ccc(-c2ccnc(Nc3ccc(N4CCOCC4)cc3)n2)cc1 [Momelotinib]	5.4	9.3	6	3.2	2.4	9.9	5.95	1.2	2.7	1.7
CN[C@@H]1C[C@H]2O[C@@](C)([C@@H]1OC)n1c3ccccc3c3c4c(c5c6ccccc6n2c5c31)C(=O)N[C@H]4O [UCN-01]	31	34.4	33.1	15.9	17.2	33.7	24.4	20.7	23.2	19.8
Cc1nc(=O)c2cc(CN(C)c3ccc(C(=O)N[C@@H](CCC(=O)O)C(=O)O)s3)ccc2[nH]1 [Raltitrexed]	0.1	1.3	0	3.8	1.5	0	0.05	0	0	0.3
C/C=C1\NC(=O)[C@H]2CSSCC/C=C/[C@H](CC(=O)N[C@H](C(C)C)C(=O)N2)OC(=O)[C@H](C(C)C)NC1=O [Romidepsin]	30.1	28.9	26.3	26.3	28.3	32.6	32.9	17.6	27.6	28.7
Nc1nc2[nH]cnc2c(=S)[nH]1 [Thioguanine]	5.3	6.3	3.2	0	0	4.3	0.95	0	0	0
CN(C)c1cc2c(cc1Sc1nc3c(N)nccc3n1CCNCC(C)(C)C)OCO2 [CUDC-305]	12.2	15.2	12.9	8.9	16.1	13.9	8.05	9.7	9.8	9.3
CC(C)c1cc(C(=O)N2Cc3ccc(CN4CCN(C)CC4)cc3C2)c(O)cc1O [Onalespib]	12	15.4	12.6	8.1	12.2	14	5.45	9	6	9
CC1(C)CCC(c2ccc(Cl)cc2)=C(CN2CCN(c3ccc(C(=O)NS(=O)(=O)c4ccc(N[C@H](CCN5CCOCC5)CSc5ccccc5)c(S(=O)(=O)C(F)(F)F)c4)cc3)CC2)C1 [Navitoclax]	14.7	23.2	21.7	4.8	6.9	21.9	21.1	0	6.6	7.3
C#Cc1cccc(Nc2ncnc3cc(OCCOC)c(OCCOC)cc23)c1 [Erlotinib]	11.7	14.1	15.7	1.8	14.7	15.1	3.6	11	3	3.7
